{"source": "paper PMC7774954", "about": "“Interactomic affinity profiling by holdup assay: Acetylation and distal residues impact the PDZome-binding specificity of PTEN phosphatase” (PLoS ONE, 2020)", "origin": "cited, not measured here", "key": {"PTPN13-4 domain": {"test_system": "PTPN13-4 domain", "details": "cited from earlier work", "text": "It has been shown that the binding of the tumor suppressor PTEN, through its PBM, to PDZ dom ..."}, "SNX27 PDZ 1": {"target": "SNX27 PDZ 1", "details": "ITC, read-out: KD (affinity provided in the literature); cited from earlier work", "text": "(§1) Table 1 PDZ domains interactors for PTEN according to literature and the present study. | column: KD ^d"}, "MAST2 PDZ 1": {"target": "MAST2 PDZ 1", "details": "ITC, read-out: KD (affinity provided in the literature); cited from earlier work", "text": "as §1"}, "PARD3 PDZ 3": {"target": "PARD3 PDZ 3", "details": "FP, read-out: KD (affinity provided in the literature); cited from earlier work", "text": "as §1"}}, "note": "Where no end group is shown, it is not given here. The star is where a group is joined. Biotin = O=C1N[C@H]2[C@H](CS[C@H]2CCCCC(=O)*)N1; TTDS = NCCCOCCOCCOCCCNC(=O)CCC(=O)*"}
{"substance": "PTEN: PTEN constructs of published studies; phosphatase and tensin homolog deleted on chromosome 10 ({Biotin-TTDS}-DEDQHTQITKV)", "values": [{"measurement": "interaction with PTPN13-4 (in words)", "setting": "PTPN13-4 domain", "result": "absence of interaction"}, {"measurement": "Kd", "setting": "SNX27 PDZ 1", "result": 38, "unit": "µM"}, {"measurement": "Kd", "setting": "MAST2 PDZ 1", "result": 2, "unit": "µM"}, {"measurement": "Kd", "setting": "PARD3 PDZ 3", "result": 19, "unit": "µM"}]}
